The record followed here is ChEMBL document CHEMBL1147026, “Synthesis of pseudopeptides based L-tryptophan as a potential antimicrobial agent” (Bioorg Med Chem Lett, 2007).

Converted amounts (≈) assume the structure as drawn.

In data set [1] the test system is Staphylococcus aureus. Kind of data set: Antibacterial activity against methicillin-susceptible Staphylococcus aureus ATCC 25923 after 24 hrs by two fold dilution method. It is filed as functional. The settings on record: ATCC 25923, 24 h.
The subject of data set [2] is Staphylococcus aureus. The experiment in a line: Antibacterial activity against methicillin-resistant Staphylococcus aureus CMAH 0430 after 24 hrs by two fold dilution method. It is filed as functional.
For data set [3], the system named is Staphylococcus aureus. The experiment in a line: Antibacterial activity against methicillin-resistant Staphylococcus aureus CMAH 0504 after 24 hrs by two fold dilution method. Format: functional.
In data set [4] the test system is Staphylococcus aureus. The experiment in a line: Antibacterial activity against methicillin-resistant Staphylococcus aureus CMAH 0515 after 24 hrs by two fold dilution method. Format: functional.
The next data set deals with Bacillus subtilis. Kind of data set: Antimicrobial activity against Bacillus subtilis after 24 hrs by two fold dilution method. Format: functional.
In the next data set the test system is Escherichia coli. Kind of data set: Antimicrobial activity against Escherichia coli ATCC 25922 after 24 hrs by two fold dilution method. Format: functional. The settings on record: ATCC 25922, 24 h.
In a further data set the test system is Pseudomonas aeruginosa. Kind of data set: Antimicrobial activity against Pseudomonas aeruginosa ATCC 27853 after 24 hrs by two fold dilution method. Format: functional. The settings on record: ATCC 27853, 24 h.
The test system of another data set is Proteus vulgaris. The experiment in a line: Antimicrobial activity against Proteus vulgaris CMCC(B) 49001 after 24 hrs by two fold dilution method. It is filed as functional.
For the next data set, the system named is Klebsiella aerogenes. The experiment in a line: Antibacterial activity against Enterobacter aerogenes CMCC(B) 45103 after 24 hrs by two fold dilution method. It is filed as functional.
The next data set relates to Micrococcus luteus. The experiment in a line: Antimicrobial activity against Micrococcus luteus CMCC(B) 28001 after 24 hrs by two fold dilution method. It is filed as functional.
The nature of data set [5]: Toxicity in human erythrocytes assessed as haemolysis upto 4000 ug/mL. It is filed as cell-based, Erythrocyte. The settings on record: read-out: Activity.
Data set [6] relates to Candida albicans. Kind of data set: Antifungal activity against Candida albicans ATCC 10231 after 48 to 72 hrs by broth microdilution method. Format: functional. (Broth dilution looks for growth in wells or tubes with falling amounts of substance.)
Data set [7] relates to Candida albicans. The experiment in a line: Antifungal activity against Candida albicans CMAH 0501 after 48 to 72 hrs by broth microdilution method. It is filed as functional.
Data set [8] has as its system Candida albicans. Kind of data set: Antifungal activity against Candida albicans CMAH 0503 after 48 to 72 hrs by broth microdilution method. Format: functional.
The subject of data set [9] is Candida albicans. Kind of data set: Antifungal activity against Candida albicans CMAH 0507 after 48 to 72 hrs by broth microdilution method. It is filed as functional.
Data set [10] deals with Candida albicans. The experiment in a line: Antifungal activity against Candida albicans CMAH 0511 after 48 to 72 hrs by broth microdilution method. It is filed as functional.
The test system of data set [11] is Candida albicans. Kind of data set: Antifungal activity against fluconazole-resistant Candida albicans CMAH 0520 after 48 to 72 hrs by broth microdilution method. It is filed as functional.
Data set [12] deals with Candida albicans. Kind of data set: Antifungal activity against Candida albicans CMAH 0527 after 48 to 72 hrs by broth microdilution method. It is filed as functional.
The subject of data set [13] is Candida albicans. Kind of data set: Antifungal activity against Candida albicans CMAH 0572 after 48 to 72 hrs by broth microdilution method. Format: functional.
The subject of data set [14] is Candida albicans. The experiment in a line: Antifungal activity against Candida albicans CMAM 0577 after 48 to 72 hrs by broth microdilution method. Format: functional.
Data set [15] relates to Candida albicans. The experiment in a line: Antifungal activity against Candida albicans CMAM 0592 after 48 to 72 hrs by broth microdilution method. Format: functional.
The test system of data set [16] is Candida albicans. The experiment in a line: Antifungal activity against Candida albicans CMAM 0594 after 48 to 72 hrs by broth microdilution method. Format: functional.
Data set [17] relates to Candida albicans. The experiment in a line: Antifungal activity against fluconazole-resistant Candida albicans CMAM 0597 after 48 to 72 hrs by broth microdilution method. Format: functional.
In another data set the test system is Cryptococcus neoformans. Kind of data set: Antifungal activity against Cryptococcus neoformans ATCC 90112 after 48 to 72 hrs by broth microdilution method. Format: functional.
In another data set the test system is Saccharomyces cerevisiae. Kind of data set: Antimicrobial activity against Saccharomyces cerevisiae after 48 to 72 hrs by broth microdilution method. Format: functional.
In another data set the test system is Rhodotorula glutinis. The experiment in a line: Antimicrobial activity against Rhodotorula glutinis SYM 2209 after 48 to 72 hrs by broth microdilution method. Format: functional.
Another data set relates to Aspergillus sp. Kind of data set: Antifungal activity against Aspergillus sp. after 48 to 72 hrs by broth microdilution method. Format: functional. The settings on record: Aspergillus sp.

The MBC is the lowest tested concentration that kills the bacteria rather than only halting them. High values mean less potent killing, low ones more potent killing. In general, MIC refers to the lowest concentration found to suppress growth. Take `O=C(N[C@H](CO)[C@H](O)c1ccc([N+](=O)[O-])cc1)C(Cl)Cl` [CHLORAMPHENICOL]: the MBC worked out at 1 µg/mL (≈ 3.09 µM) in the data set on Staphylococcus aureus [1]; 2 µg/mL (≈ 6.19 µM) in the data set on Staphylococcus aureus [2]; 2 µg/mL (≈ 6.19 µM) in the data set on Staphylococcus aureus [3]; 4 µg/mL (≈ 12.4 µM) in the data set with Staphylococcus aureus [4]; 2 µg/mL (≈ 6.19 µM) against Bacillus subtilis; 4 µg/mL (≈ 12.4 µM) in the data set with Escherichia coli. In addition, the MBC in the data set with Pseudomonas aeruginosa was 64 µg/mL (≈ 198 µM); with Proteus vulgaris, 0.25 µg/mL (≈ 0.774 µM); in the data set with Klebsiella aerogenes, 2 µg/mL (≈ 6.19 µM); against Micrococcus luteus, 4 µg/mL (≈ 12.4 µM). Further, the MIC amounted to 1 µg/mL (≈ 3.09 µM) in the data set on Staphylococcus aureus [1]; 1 µg/mL (≈ 3.09 µM) in the data set on Staphylococcus aureus [2]; 2 µg/mL (≈ 6.19 µM) in the data set with Staphylococcus aureus [3]; 2 µg/mL (≈ 6.19 µM) with Staphylococcus aureus [4]; 2 µg/mL (≈ 6.19 µM) against Bacillus subtilis; 2 µg/mL (≈ 6.19 µM) against Escherichia coli. For the same compound, the MIC against Pseudomonas aeruginosa worked out at 32 µg/mL (≈ 99 µM); in the data set on Proteus vulgaris it was 0.25 µg/mL (≈ 0.774 µM); in the data set on Klebsiella aerogenes, 2 µg/mL (≈ 6.19 µM); in the data set with Micrococcus luteus, 2 µg/mL (≈ 6.19 µM). Moreover, the hemolysis in [5] was determined as 14%.

In general, MIC50 refers to an inhibitory concentration at the 50% level, which refers to growth in some studies and to a panel of isolates in others. A lower MIC50 goes with greater potency. The MIC90 is the lowest concentration that inhibits either 90% of growth or 90% of the strains tested, depending on the study. High values mean weaker potency, low ones greater potency. In the case of `OC(Cn1cncn1)(Cn1cncn1)c1ccc(F)cc1F` [FLUCONAZOLE], the MIC with Candida albicans [6] was 8 µg/mL (≈ 26.1 µM); against Candida albicans [7] it was 16 µg/mL (≈ 52.2 µM); against Candida albicans [8], 32 µg/mL (≈ 104 µM); in the data set on Candida albicans [9], 64 µg/mL (≈ 209 µM); against Candida albicans [10], 16 µg/mL (≈ 52.2 µM); against Candida albicans [11], more than 64 µg/mL. The MIC in the data set with Candida albicans [12] was 64 µg/mL (≈ 209 µM); in the data set with Candida albicans [13] it was 64 µg/mL (≈ 209 µM); against Candida albicans [14], 64 µg/mL (≈ 209 µM); in the data set on Candida albicans [15], 32 µg/mL (≈ 104 µM); against Candida albicans [16], 64 µg/mL (≈ 209 µM); in the data set on Candida albicans [17], more than 64 µg/mL. Besides, the MIC was 16 µg/mL (≈ 52.2 µM) against Cryptococcus neoformans, 4 µg/mL (≈ 13.1 µM) in the data set with Saccharomyces cerevisiae, more than 64 µg/mL against Rhodotorula glutinis and more than 64 µg/mL with Aspergillus sp.. This compound also displayed an MIC50 against Aspergillus sp. of more than 64 µg/mL. The MIC90 against Aspergillus sp. was more than 64 µg/mL.

Regarding `NC[C@H]1O[C@H](O[C@H]2[C@H](O)[C@@H](O[C@H]3O[C@H](CO)[C@@H](O)[C@H](N)[C@H]3O)[C@H](N)C[C@@H]2N)[C@H](O)[C@@H](O)[C@@H]1O` [KANAMYCIN], the MBC against Staphylococcus aureus [1] was 0.5 µg/mL (≈ 1.03 µM); with Bacillus subtilis, 4 µg/mL (≈ 8.26 µM); in the data set with Escherichia coli, 0.25 µg/mL (≈ 0.516 µM); with Pseudomonas aeruginosa it was more than 128 µg/mL; against Proteus vulgaris, 0.5 µg/mL (≈ 1.03 µM); against Klebsiella aerogenes it was 0.25 µg/mL (≈ 0.516 µM). The same compound showed an MBC in the data set with Micrococcus luteus of 0.25 µg/mL (≈ 0.516 µM). Further, the minimum inhibitory concentration (MIC) is 0.25 µg/mL (≈ 0.516 µM) in the data set on Staphylococcus aureus [1]; more than 64 µg/mL against Staphylococcus aureus [2]; more than 64 µg/mL in the data set with Staphylococcus aureus [3]; more than 64 µg/mL in the data set with Staphylococcus aureus [4]; 4 µg/mL (≈ 8.26 µM) in the data set on Bacillus subtilis; 0.25 µg/mL (≈ 0.516 µM) in the data set on Escherichia coli. The MIC against Pseudomonas aeruginosa is 64 µg/mL (≈ 132 µM); against Proteus vulgaris, 0.25 µg/mL (≈ 0.516 µM); in the data set on Klebsiella aerogenes it was 0.25 µg/mL (≈ 0.516 µM); against Micrococcus luteus it was 0.25 µg/mL (≈ 0.516 µM).
